Data on 6 compounds can be found in patent US11446300B2 (Alexion Pharmaceuticals, Inc., priority 2015, dated 2022).

The test system of one test is primary CLL cells. Description: Apoptosis in primary CLL samples, propidium iodide/Annexin V staining and PARP cleavage. Format: cell-based, human. The conditions noted are these: co-treatment with cerdulatinib.
The test system of another test is LY18. Description: DLBCL cell line viability, CellTiter Glo, ten-point curve. As to conditions: read-out: IC50 of Kinase Inhibitor in Cell Titer Glo Assay. Format: cell-based. On the technique in general: ATP-based viability assays read luminescence as a measure of living cells.
The subject of test [1] is VAL. Described as above. The test is classed as cell-based. As to conditions: read-out: IC50 of Kinase Inhibitor in Cell Titer Glo Assay.
Source text: (§2) Each IC50 value is an average of at least four replicate experiments.
Test [2] relates to DHL6. The description is as above. Format: cell-based. The conditions noted are these: read-out: IC50 of Kinase Inhibitor in Cell Titer Glo Assay.
Source text: as §2
Another test has as its system LY10 (OCI-LY10). The test is described as above. Format: cell-based. As to conditions: LY10 cell line; read-out: IC50 of Kinase Inhibitor in Cell Titer Glo Assay.
Another test deals with DHL4. Described as above. Format: cell-based. The conditions noted are these: read-out: IC50 of Kinase Inhibitor in Cell Titer Glo Assay.
The next test deals with DHL5. Described as above. The test is classed as cell-based. As to conditions: read-out: IC50 of Kinase Inhibitor in Cell Titer Glo Assay.
For test [3], the system named is U2932. The description is as above. The test is classed as cell-based. As to conditions: Homo sapiens, read-out: IC50 of Kinase Inhibitor in Cell Titer Glo Assay.
Source text: as §2
The next test deals with LY1. The description is as above. The conditions noted are these: read-out: IC50 of Kinase Inhibitor in Cell Titer Glo Assay. The test is classed as cell-based.
The test system of test [4] is DHL10. The description is as above. As to conditions: read-out: IC50 of Kinase Inhibitor in Cell Titer Glo Assay. The test is classed as cell-based.
Source text: as §2
For another test, the system named is LY7. Described as above. The test is classed as cell-based. As to conditions: read-out: IC50 of Kinase Inhibitor in Cell Titer Glo Assay.
The next test deals with DHL8. The test is described as above. The test is classed as cell-based. The conditions noted are these: read-out: IC50 of Kinase Inhibitor in Cell Titer Glo Assay.
Another test relates to DLCL2. The description is as above. Format: cell-based. As to conditions: read-out: IC50 of Kinase Inhibitor in Cell Titer Glo Assay.
A further test relates to DB. The description is as above. Format: cell-based. The conditions noted are these: Homo sapiens; DB cell line; read-out: IC50 of Kinase Inhibitor in Cell Titer Glo Assay.
Test [5] concerns TOLEDO. The test is described as above. The test is classed as cell-based. The conditions noted are these: Homo sapiens; TOLEDO cell line; read-out: IC50 of Kinase Inhibitor in Cell Titer Glo Assay.
Source text: as §2
A further test relates to RCK8. The test is described as above. The test is classed as cell-based. As to conditions: Homo sapiens; RCK8 cell line; read-out: IC50 of Kinase Inhibitor in Cell Titer Glo Assay.
Test [6] has as its system DHL10. Description: Combination synergy, Cell Titer Glo, 72 hours. Format: cell-based. On the procedure: (§1) Synergistic anti-tumor activity in DLBCL cell lines was determined using the Cell Titer Glo assay. Briefly, 5,000 cells were plated in 96 well plates in complete tissue culture media. […] Cells were incubated with or without drug for 72 hours in a 37° C. tissue culture incubator prior to evaluation by CellTiter Glo as per the manufacturer protocol (Promega). Synergy was evaluated by calculating combination index score, as described elsewhere (Jacquement et al, Molecular Cancer 2012) following IC50 determination using Prism software. The compounds are commercially available or are made according to synthetic methods known to those skilled in the art.
as §1, with “calculating a” for “calculating”

The subject of the next test is DHL4 (SU-DHL4). Description: Combination synergy, Cell Titer Glo, 72 hours. The test is classed as cell-based. The conditions noted are these: Homo sapiens. On the procedure: as §1
as §1, with “calculating a” for “calculating”

Test [7] relates to DHL6. Briefly: Combination synergy, Cell Titer Glo, 72 hours. The test is classed as cell-based. The method, then:
as §1
as §1, with “calculating a” for “calculating”

A further test deals with Lyl (OCI-Lyl). Briefly: Combination synergy, Cell Titer Glo, 72 hours. Format: cell-based. On the procedure: as §1
as §1, with “calculating a” for “calculating”

Test [8] has as its system VAL. Description: Combination synergy, Cell Titer Glo, 72 hours. Format: cell-based. On the procedure:
as §1
as §1, with “calculating a” for “calculating”

The subject of another test is OCI-Ly18. Description: Combination synergy, Cell Titer Glo, 72 hours. The test is classed as cell-based. As to conditions: Homo sapiens, OCI-Ly18, 72 h. On the procedure:
as §1, with “calculating a” for “calculating”

In test [9] the test system is WT BTK-transfected TMD8 cells. Briefly: Cell count and viability of transfected TMD8 cells. The conditions noted are these: 250 nM; 7 days. Format: cell-based.
Source text: (§3) Cell transfection, cell count and viability assay: TMD8 cells were transfected with constructs of WT BTK or BTK^C481S mutants using kit V, Program U-13 on Amaxa Nucleofector, according to the manufacturer's protocols (Amaxa, Cologne, Germany). After transfection, the cells were co-cultured with NKTert cells in a 24-well plate for 24 hrs for recovery.
Test [10] has as its system BTK^C481S-transfected TMD8 cells. Description: Cell count and viability of transfected TMD8 cells. The test is classed as cell-based. The conditions noted are these: 250 nM; 7 days.
Source text: as §3
In test [11] the test system is TOLEDO. Description: Combination synergy, Cell Titer Glo, 72 hours. Format: cell-based. As to conditions: Homo sapiens. The method, then: as §1
In test [12] the test system is U2932. Description: Combination synergy, Cell Titer Glo, 72 hours. The test is classed as cell-based. The conditions noted are these: Homo sapiens. The method, then: as §1
The test system of the next test is CLL primary cells. Briefly: CLL cell viability with IL-4/CD40L, PI/Annexin V staining. The test is classed as cell-based, human. On the procedure: Viability was assessed using (A) PI/Annexin V staining by flow cytometry. A representative plot is shown or (B) summarized (n=9) showing % of control (PI/Annexin V negative cells). […] Points below the diagonal line represent synergistic interactions, above the line are additive.
Values above the diagonal line represent additive interaction and those under the line are synergistic.

Read-outs that look alike come from different tables or passages of the source. Peptide text beside a SMILES is read from it. * marks the point of attachment. Cbz = O=C(OCc1ccccc1)*; CH2F = FC* A value given as a limit tells only on which side of the number the result lay.

Source text for DB: as §2
Source text for DHL5: as §2
Source text for DHL8: as §2
Source text for DLCL2: as §2
Source text for LY10 (OCI-LY10): as §2
Source text for LY7: as §2
Source text for RCK8: as §2

Regarding `CC(NC(=O)C(NC(=O)OCc1ccccc1)C(C)C)C(=O)NC(CC(=O)O)C(=O)CF` (stereo not drawn) [ZVAD, reference compound] (Cbz-Val-Ala-Asp-CH2F; configuration not given here), in the test on primary CLL cells, the “cerdulatinib induced apoptosis on co-treatment” value was “inhibited”.

A word on the IC50: it is the point on the concentration scale where inhibition reaches its midpoint. On to `CC[C@H](Nc1ncnc2[nH]cnc12)c1nc2cccc(F)c2c(=O)n1-c1ccccc1` [Idelalisib], for which the IC50 stood at 3.8 µM in the test with LY18; 29 µM in the test on VAL [1]; 0.03 µM with DHL6 [2]; 12 µM in the test with LY10 (OCI-LY10); 12 µM with DHL4; 1.3 µM in the test with DHL5. Besides, the 50% inhibitory concentration (IC50) in the test on U2932 [3] came out at 40 µM; in the test on LY1, 4.9 µM; with DHL10 [4], 12 µM; in the test with LY7, 13 µM; with DHL8 it was 49 µM; with DLCL2 it was 15 µM. For the same compound, the IC50 with DB was 42 µM; in the test with TOLEDO [5] it was ≥ 50 µM; with RCK8, ≥ 50 µM.

In the case of `C=CC(=O)N1CCC[C@@H](n2nc(-c3ccc(Oc4ccccc4)cc3)c3c(N)ncnc32)C1` [Ibrutinib, 1-[(3R)-3-[4-Amino-3-(4-phenoxyphenyl)-1H-pyrazolo[3,4-d]pyrimidin-1-yl]piperidin-1-yl]prop-2-en-1-one, reference compound], the IC50 in the test on DHL10 [6] was 1.89 µM; with DHL4 (SU-DHL4) (SU-DHL-4, 72 h, read-out: IC50), 3.1 µM; in the test on DHL6 [7], 0.31 µM; in the test on Lyl (OCI-Lyl), 0.75 µM; in the test with VAL [8], 4.56 µM; in the test on OCI-Ly18, 1.24 µM. The cell growth entry is on record as “similarly inhibited” in test [9] and “less sensitive” in [10].

Regarding `C[C@H](Nc1ncnc2nc[nH]c12)c1cc2cccc(Cl)c2c(=O)n1-c1ccccc1` [IPI-145], the IC50 with LY18 turned out to be 0.96 µM; with VAL [1], 21 µM; with DHL6 [2], 0.002 µM; in the test on LY10 (OCI-LY10), 5.7 µM; in the test on DHL4, 3.7 µM; with DHL5, 0.33 µM. Moreover, the half-maximal inhibitory concentration (IC50) in the test with U2932 [3] came to 27 µM; in the test with LY1, 1.3 µM; with DHL10 [4], 4.1 µM; with LY7, 25 µM; in the test with DHL8, 45 µM; in the test on DLCL2 it was 5 µM. In addition, the IC50 was ≥ 50 µM in the test with DB, 18 µM in the test with TOLEDO [5] and ≥ 50 µM in the test on RCK8.

For `CC1(C)CCC(CN2CCN(c3ccc(C(=O)NS(=O)(=O)c4ccc(NCC5CCOCC5)c([N+](=O)[O-])c4)c(Oc4cnc5[nH]ccc5c4)c3)CC2)=C(c2ccc(Cl)cc2)C1` [ABT-199, 4-(4-{[2-(4-chlorophenyl)-4,4-dimethylcyclohex-1-en-1-yl]methyl}piperazin-1-yl)-N-({3-nitro-4-[(tetrahydro-2H-pyran-4-ylmethyl)amino]phenyl}-sulfonyl)-2-(1H-pyrrolo[2,3-b]pyridin-5-yloxy)benzamide, reference compound], the IC50 with DHL10 [6] was 3.7 µM; with DHL4 (SU-DHL4) (SU-DHL-4, 72 h, read-out: IC50), 1.63 µM; in the test with DHL4 (SU-DHL4) (SU-DHL-4, SU-DHL4 cell line, read-out: IC50 value) it was 1.63 µM; in the test on DHL6 [7], 0.023 µM; with Lyl (OCI-Lyl) it was 0.75 µM; in the test with VAL [8] it was 4.3 µM. Moreover, the IC50 in the test on TOLEDO [11] was found to be 0.23 µM; in the test with U2932 [12] (U2932, 72 h, read-out: IC50), 0.49 µM; in the test with U2932 [12] (U2932 cell line, read-out: IC50 value), 0.49 µM. In addition, the CLL cell viability result with CLL primary cells (IL-4/CD40L for 6 hours, then drug for 24 hours, n=9) was “protected CLL cells against ABT-199 induced apoptosis”; with CLL primary cells (absence of IL-4/CD40L, 24 hours), “significantly reduced CLL cell viability”.

In the case of `COc1cccc2c1C(=O)c1c(O)c3c(c(O)c1C2=O)C[C@@](O)(C(=O)CO)C[C@@H]3O[C@H]1C[C@H](N)[C@H](O)[C@H](C)O1` [Doxo, Doxorubicin], the half-maximal inhibitory concentration (IC50) in the test on LY18 turned out to be 0.06 µM; with VAL [1], 0.22 µM; in the test on DHL6 [2], 0.14 µM; in the test on LY10 (OCI-LY10), 0.04 µM; with DHL4 it was 0.1 µM; in the test on DHL5 it was 0.03 µM. In addition, the IC50 was 0.35 µM with U2932 [3]; 0.19 µM in the test on LY1; 0.3 µM in the test with DHL10 [4]; 0.14 µM in the test with LY7; 0.15 µM in the test on DHL8; 0.18 µM with DLCL2. In addition, the IC50 with DB amounted to 0.37 µM; with TOLEDO [5] it was 0.44 µM; in the test with RCK8, 0.2 µM.
